Laboratory results from ChEMBL document CHEMBL4261520, “Advances in indoleamine 2,3-dioxygenase 1 medicinal chemistry” (Medchemcomm, 2017).

Test system: Homo sapiens
Experiment: In vivo inhibition of IDO1 in malignant glioma patient assessed as reduction in intratumoral kynurenine levels relative to control
Type: functional

O=C1CC(c2c[nH]c3ccc(F)cc23)C(=O)N1 (stereo unspecified) [PF-06840003]
inhibition (INH): >80%
